Experimental data: paper PMC6189639 (Biochemistry, 2018)

Experiments:
Assay in all cases: X-ray crystal structure of complex, […] A
Format in all cases: binding
tmMBP2 = tmMBP2 (Thermotoga maritima, UniProt Q9S5Y1); conditions: co-crystal, bis-tris pH 5.5; substrate site S1-S4
tmMBP1 = tmMBP1 (Thermotoga maritima, UniProt Q9X0T1); conditions: co-crystal, 0.1 M sodium citrate; substrate site S1-S4
tmMBP3 = tmMBP3 (Thermotoga maritima, UniProt G4FGN8); conditions: co-crystal, 0.4 M sodium thiocyanate; substrate site S1-S2

| SMILES | X-ray crystal structure of complex, 1.50 A; SAXS (tmMBP2) | X-ray crystal structure of complex, 1.50 A; SAXS (tmMBP1) | X-ray crystal structure of complex, 2.15 A; SAXS (tmMBP3) |
| --- | --- | --- | --- |
| OC[C@H]1O[C@H](O[C@H]2[C@H](O)[C@@H](O)[C@@H](O[C@H]3[C@H](O)[C@@H](O)[C@@H](O[C@H]4[C@H](O)[C@@H](O)C(O)O[C@@H]4CO)O[C@@H]3CO)O[C@@H]2CO)[C@H](O)[C@@H](O)[C@@H]1O (stereo partly drawn) [maltotetraose] | tmMBP2-maltotetraose complex (6DTS) | tmMBP1-maltotetraose complex (6DTU) | – |
| OC[C@H]1O[C@H](O[C@H]2[C@H](O)[C@@H](O)C(O)O[C@@H]2CO)[C@H](O)[C@@H](O)[C@@H]1O (stereo partly drawn) [maltose] | – | – | tmMBP3-maltose complex (6DTQ) |
